Reference: ChEMBL document CHEMBL4270599, “Synthesis of a 3'-C-ethynyl-β-d-ribofuranose purine nucleoside library: Discovery of C7-deazapurine analogs as potent antiproliferative nucleosides” (Eur J Med Chem, 2018)

What was measured:
Type in all cases: functional
[1] = system: COLO 205; test: Growth inhibition of human COLO205 cells assessed as cell growth at 10^-7 M incubated for 48 hrs by sulforhodamine B assay relative to control; details: COLO 205, 48 h, read-out: Activity
[2] = system: SF-539; test: Growth inhibition of human SF539 cells assessed as cell growth at 10^-7 M incubated for 48 hrs by sulforhodamine B assay relative to control; details: SF-539, 48 h, read-out: Activity
[3] = system: NCI-H522; test: Growth inhibition of human NCI-H522 cells assessed as cell growth at 10^-8 M incubated for 48 hrs by sulforhodamine B assay relative to control; details: NCI-H522, 48 h, read-out: Activity
[4] = system: HT-29; test: Cytotoxicity against human HT-29 cells after 48 hrs by SRB assay; details: HT-29, 48 h; for GI50: read-out: GI50
[5] = system: SR; test: Growth inhibition of human SR cells assessed as cell growth at 10^-7 M incubated for 48 hrs by sulforhodamine B assay relative to control; details: read-out: Activity
[6] = system: SW-620; test: Growth inhibition of human SW620 cells assessed as cell growth at 10^-5 M incubated for 48 hrs by sulforhodamine B assay relative to control; details: SW-620, 48 h, read-out: Activity
[7] = system: A498; test: Growth inhibition of human A498 cells assessed as cell growth at 10^-8 M incubated for 48 hrs by sulforhodamine B assay relative to control; details: A498, 48 h, read-out: Activity
[8] = system: PC-3; test: Growth inhibition of human PC3 cells assessed as cell growth at 10^-5 M incubated for 48 hrs by sulforhodamine B assay relative to control; details: PC-3, 48 h, read-out: Activity
[9] = system: UACC-62; test: Growth inhibition of human UACC62 cells assessed as cell growth at 10^-5 M incubated for 48 hrs by sulforhodamine B assay relative to control; details: UACC-62, 48 h, read-out: Activity
[10] = system: SN12C; test: Growth inhibition of human SN12C cells assessed as cell growth at 10^-6 M incubated for 48 hrs by sulforhodamine B assay relative to control; details: read-out: Activity
[11] = system: NCI/ADR-RES; test: Growth inhibition of human NCI/ADR-RES cells assessed as cell growth at 10^-6 M incubated for 48 hrs by sulforhodamine B assay relative to control; details: read-out: Activity
[12] = system: PC-3; test: Cytotoxicity against human PC3 cells after 48 hrs by SRB assay; details: PC-3, 48 h; for GI50: read-out: GI50; for TGI: read-out: TGI
[13] = system: UACC-257; test: Growth inhibition of human UACC257 cells assessed as cell growth at 10^-6 M incubated for 48 hrs by sulforhodamine B assay relative to control; details: UACC-257, 48 h, read-out: Activity
[14] = system: MDA-MB-435; test: Cytotoxicity against human MDA-MB-435 cells after 48 hrs by SRB assay; details: MDA-MB-435, 48 h; for GI50: read-out: GI50; for TGI: read-out: TGI
[15] = system: HT-29; test: Growth inhibition of human HT-29 cells assessed as cell growth at 10^-7 M incubated for 48 hrs by sulforhodamine B assay relative to control; details: HT-29, 48 h, read-out: Activity
[16] = system: CCRF-CEM; test: Growth inhibition of human CCRF-CEM cells assessed as cell growth at 10^-7 M incubated for 48 hrs by sulforhodamine B assay relative to control; details: read-out: Activity
[17] = system: MCF7; test: Cytotoxicity against human MCF7 cells after 48 hrs by SRB assay; details: MCF7, 48 h
[18] = system: RPMI-8226; test: Growth inhibition of human RPMI8226 cells assessed as cell growth at 10^-7 M incubated for 48 hrs by sulforhodamine B assay relative to control; details: RPMI-8226, 48 h, read-out: Activity
[19] = system: M14; test: Growth inhibition of human M14 cells assessed as cell growth at 10^-7 M incubated for 48 hrs by sulforhodamine B assay relative to control; details: M14, 48 h, read-out: Activity
[20] = system: HCT-15; test: Growth inhibition of human HCT15 cells assessed as cell growth at 10^-4 M incubated for 48 hrs by sulforhodamine B assay relative to control; details: HCT-15, 48 h, read-out: Activity
[21] = system: SW-620; test: Growth inhibition of human SW620 cells assessed as cell growth at 10^-7 M incubated for 48 hrs by sulforhodamine B assay relative to control; details: SW-620, 48 h, read-out: Activity
[22] = system: SF-268; test: Growth inhibition of human SF268 cells assessed as cell growth at 10^-6 M incubated for 48 hrs by sulforhodamine B assay relative to control; details: SF-268, 48 h, read-out: Activity
[23] = system: LOX IMVI; test: Cytotoxicity against human LOXIMVI cells after 48 hrs by SRB assay; details: for GI50: read-out: GI50; for CC50: read-out: LC50 (the source's name); for TGI: read-out: TGI
[24] = system: OVCAR-5; test: Growth inhibition of human OVCAR5 cells assessed as cell growth at 10^-8 M incubated for 48 hrs by sulforhodamine B assay relative to control; details: OVCAR-5, 48 h, read-out: Activity
[25] = system: OVCAR-4; test: Growth inhibition of human OVCAR4 cells assessed as cell growth at 10^-7 M incubated for 48 hrs by sulforhodamine B assay relative to control; details: OVCAR-4, 48 h, read-out: Activity
[26] = system: COLO 205; test: Growth inhibition of human COLO205 cells assessed as cell growth at 10^-5 M incubated for 48 hrs by sulforhodamine B assay relative to control; details: COLO 205, 48 h, read-out: Activity
[27] = system: NCI/ADR-RES; test: Growth inhibition of human NCI/ADR-RES cells assessed as cell growth at 10^-4 M incubated for 48 hrs by sulforhodamine B assay relative to control; details: read-out: Activity
[28] = system: HCC 2998; test: Growth inhibition of human HCC2998 cells assessed as cell growth at 10^-6 M incubated for 48 hrs by sulforhodamine B assay relative to control; details: HCC 2998, 48 h, read-out: Activity
[29] = system: SK-OV-3; test: Growth inhibition of human SKOV3 cells assessed as cell growth at 10^-4 M incubated for 48 hrs by sulforhodamine B assay relative to control; details: SK-OV-3, 48 h, read-out: Activity
[30] = system: MDA-MB-435; test: Growth inhibition of human MDA-MB-435 cells assessed as cell growth at 10^-5 M incubated for 48 hrs by sulforhodamine B assay relative to control; details: MDA-MB-435, 48 h, read-out: Activity
[31] = system: OVCAR-3; test: Growth inhibition of human OVCAR3 cells assessed as cell growth at 10^-4 M incubated for 48 hrs by sulforhodamine B assay relative to control; details: OVCAR-3, 48 h, read-out: Activity
[32] = system: RXF 393; test: Growth inhibition of human RXF393 cells assessed as cell growth at 10^-6 M incubated for 48 hrs by sulforhodamine B assay relative to control; details: RXF 393, 48 h, read-out: Activity
[33] = read-out: LC50 (the source's name)
[34] = read-out: pLC50 (the source's name) (converted)

C#C[C@@]1(O)[C@@H](CO)O[C@@H](n2cc(Br)c3c(N)ncnc32)[C@@H]1O
growth at 0.1 µM [1]: 24 to 69%
growth at 0.1 µM [2]: 79 to 91%
growth at 0.01 µM [3]: 89 to 95%
GI50 [4]: 25.8 to 55.9 nM
CC50 [4, 33]: > 100000 nM
TGI ([4]; read-out: TGI): > 100000 nM
TGI ([4]; read-out: pTGI (converted)): > 100000 nM
growth at 0.1 µM [5]: 20 to 46%
growth at 10 µM [6]: 4 to 5%
growth at 0.01 µM [7]: 95 to 97%
growth at 10 µM [8]: 3%
growth at 10 µM [9]: 4 to 8%
growth at 1 µM [10]: 7 to 13%
growth at 1 µM [11]: 6%
GI50 [12]: 47.7 to 167 nM
TGI [12]: 8700 to 100000 nM
CC50 [12, 34]: > 100000 nM
growth at 1 µM [13]: 60 to 73%
GI50 [14]: 105 to 294 nM
TGI [14]: 5360 to 19700 nM
CC50 [14, 34]: > 100000 nM
growth at 0.1 µM [15]: 10 to 35%
growth at 0.1 µM [16]: 58 to 83%
GI50 ([17]; read-out: GI50): 16 to 30.7 nM
CC50 [17, 33]: > 100000 nM
TGI ([17]; read-out: TGI): 1190 to 1810 nM
growth at 0.1 µM [18]: 41 to 83%
growth at 0.1 µM [19]: 56 to 81%
growth at 100 µM [20]: 1 to 4%
growth at 0.1 µM [21]: 18 to 45%
growth at 1 µM [22]: 34 to 36%
GI50 [23]: 29 to 105 nM
CC50 [23]: 720 to 2130 nM
TGI [23]: 176 to 351 nM
growth at 0.01 µM [24]: 98 to 99%
growth at 0.1 µM [25]: 78 to 89%

C#C[C@@]1(O)[C@@H](CO)O[C@@H](n2cc(I)c3c(N)ncnc32)[C@@H]1O
growth at 0.1 µM [1]: 35 to 63%
growth at 10 µM [26]: -62%
growth at 0.1 µM [2]: 75 to 82%
growth at 0.01 µM [3]: 83 to 85%
GI50 [4]: 14.2 to 39.7 nM
TGI ([4]; read-out: TGI): 3300 to 6840 nM
CC50 [4, 34]: > 100000 nM
growth at 0.1 µM [5]: 60 to 86%
growth at 100 µM [27]: -2%
growth at 1 µM [28]: 11 to 16%
growth at 10 µM [6]: 4%
growth at 100 µM [29]: -9%
growth at 0.01 µM [7]: 88 to 102%
growth at 10 µM [8]: 2%
growth at 1 µM [10]: 16 to 25%
growth at 10 µM [30]: 3 to 4%
growth at 1 µM [11]: 4 to 7%
GI50 [12]: 66.3 to 86.1 nM
CC50 [12, 33]: > 100000 nM
TGI [12]: 14500 to 100000 nM
growth at 1 µM [13]: 72 to 79%
GI50 [14]: 320 to 699 nM
CC50 [14, 33]: > 100000 nM
TGI [14]: 11700 to 14000 nM
growth at 0.1 µM [15]: 14 to 34%
growth at 0.1 µM [16]: 72 to 74%
TGI ([17]; read-out: TGI): > 100000 nM
CC50 [17, 34]: > 100000 nM
TGI ([17]; read-out: pTGI (converted)): > 100000 nM
growth at 0.1 µM [18]: 71 to 90%
growth at 0.1 µM [19]: 67 to 75%
growth at 100 µM [20]: 1%
growth at 0.1 µM [21]: 39%
growth at 1 µM [22]: 49 to 55%
GI50 [23]: 39.7 to 81.2 nM
CC50 [23]: > 100000 nM
TGI [23]: 241 to 1220 nM
growth at 100 µM [31]: 1 to 2%
growth at 1 µM [32]: 26 to 34%
growth at 0.01 µM [24]: 79 to 80%
growth at 0.1 µM [25]: 87 to 91%
